Results taken from ChEMBL document CHEMBL3991601, “The target landscape of clinical kinase drugs” (Science, 2017).
Activity calls are given as the source filed them.

biological target: T1, Ephrin type-B receptor 2 (Homo sapiens, UniProt P29323)
T1 sequence (P29323 whole entry): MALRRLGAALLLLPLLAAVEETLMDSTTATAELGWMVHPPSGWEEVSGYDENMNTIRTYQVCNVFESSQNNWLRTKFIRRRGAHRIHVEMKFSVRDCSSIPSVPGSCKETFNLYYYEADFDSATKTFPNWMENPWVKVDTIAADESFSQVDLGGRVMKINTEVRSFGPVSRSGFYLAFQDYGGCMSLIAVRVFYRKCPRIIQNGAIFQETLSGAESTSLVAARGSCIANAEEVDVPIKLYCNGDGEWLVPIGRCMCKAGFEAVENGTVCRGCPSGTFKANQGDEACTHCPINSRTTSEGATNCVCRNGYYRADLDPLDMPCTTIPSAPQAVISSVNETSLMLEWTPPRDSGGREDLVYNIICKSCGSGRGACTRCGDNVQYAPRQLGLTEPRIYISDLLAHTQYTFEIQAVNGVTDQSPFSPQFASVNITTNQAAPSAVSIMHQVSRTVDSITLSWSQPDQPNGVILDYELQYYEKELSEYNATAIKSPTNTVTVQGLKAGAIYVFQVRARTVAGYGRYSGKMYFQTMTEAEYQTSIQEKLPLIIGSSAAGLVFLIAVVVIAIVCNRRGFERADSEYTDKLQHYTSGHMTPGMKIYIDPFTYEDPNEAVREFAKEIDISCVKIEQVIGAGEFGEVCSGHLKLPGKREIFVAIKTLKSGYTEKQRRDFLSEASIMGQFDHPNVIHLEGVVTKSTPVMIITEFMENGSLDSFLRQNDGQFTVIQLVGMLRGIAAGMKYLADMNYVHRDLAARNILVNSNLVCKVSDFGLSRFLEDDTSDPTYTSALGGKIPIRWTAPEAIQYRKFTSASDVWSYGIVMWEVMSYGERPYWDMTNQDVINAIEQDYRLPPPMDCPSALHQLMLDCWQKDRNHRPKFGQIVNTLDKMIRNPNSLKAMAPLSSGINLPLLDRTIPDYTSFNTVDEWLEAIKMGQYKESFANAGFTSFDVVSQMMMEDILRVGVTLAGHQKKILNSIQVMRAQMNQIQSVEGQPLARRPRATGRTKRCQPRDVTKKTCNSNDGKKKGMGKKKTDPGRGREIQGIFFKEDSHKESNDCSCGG
Also: in the data inactive means no Kd found up to 30 µM.

Row | Structure (SMILES) | Kd
1 | CCCS(=O)(=O)Nc1ccc(F)c(C(=O)c2c[nH]c3ncc(-c4ccc(Cl)cc4)cc23)c1F [VEMURAFENIB] | > 30 µM (inactive)
2 | CC[C@@H]1C(=O)N(C)c2cnc(Nc3ccc(C(=O)N[C@H]4CC[C@H](N5CCN(CC6CC6)CC5)CC4)cc3OC)nc2N1C(C)C [VOLASERTIB] | > 30 µM (inactive)
3 | CCn1c(=O)c(-c2cc[nH]n2)cc2c(C)nc(N)nc21 [VOXTALISIB] | > 30 µM (inactive)
4 | O=C(Nc1ccc(-c2ccnc(Nc3ccc(N4CCOCC4)cc3)n2)cc1)C1CCCN1 (stereo not given) [XL-019] | > 30 µM (inactive)

biological target: Serine/threonine-protein kinase PAK 2 (Homo sapiens, UniProt Q13177)
Sequence (Q13177 whole entry): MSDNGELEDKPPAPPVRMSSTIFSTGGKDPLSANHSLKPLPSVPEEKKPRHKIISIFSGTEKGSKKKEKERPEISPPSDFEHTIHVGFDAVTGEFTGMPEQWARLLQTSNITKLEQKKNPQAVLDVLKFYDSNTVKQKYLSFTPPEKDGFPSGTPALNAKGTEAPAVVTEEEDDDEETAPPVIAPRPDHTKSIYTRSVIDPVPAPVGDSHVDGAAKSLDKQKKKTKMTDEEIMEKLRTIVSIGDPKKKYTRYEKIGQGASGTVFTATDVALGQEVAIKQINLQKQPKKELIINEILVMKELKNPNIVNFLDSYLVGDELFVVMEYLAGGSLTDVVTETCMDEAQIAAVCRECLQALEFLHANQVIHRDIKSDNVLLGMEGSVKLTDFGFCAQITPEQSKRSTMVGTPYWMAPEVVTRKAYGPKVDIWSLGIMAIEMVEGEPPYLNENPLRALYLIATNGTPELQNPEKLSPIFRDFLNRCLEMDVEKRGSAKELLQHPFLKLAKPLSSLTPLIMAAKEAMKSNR

Row | Structure (SMILES) | Kd
5 | CCCS(=O)(=O)Nc1ccc(F)c(C(=O)c2c[nH]c3ncc(-c4ccc(Cl)cc4)cc23)c1F [VEMURAFENIB] | > 30 µM (inactive)
6 | CC[C@@H]1C(=O)N(C)c2cnc(Nc3ccc(C(=O)N[C@H]4CC[C@H](N5CCN(CC6CC6)CC5)CC4)cc3OC)nc2N1C(C)C [VOLASERTIB] | > 30 µM (inactive)
7 | CCn1c(=O)c(-c2cc[nH]n2)cc2c(C)nc(N)nc21 [VOXTALISIB] | > 30 µM (inactive)
8 | O=C(Nc1ccc(-c2ccnc(Nc3ccc(N4CCOCC4)cc3)n2)cc1)C1CCCN1 (stereo not given) [XL-019] | > 30 µM (inactive)

biological target: Tyrosine-protein kinase BTK (Homo sapiens, UniProt Q06187)
Sequence (Q06187 whole entry): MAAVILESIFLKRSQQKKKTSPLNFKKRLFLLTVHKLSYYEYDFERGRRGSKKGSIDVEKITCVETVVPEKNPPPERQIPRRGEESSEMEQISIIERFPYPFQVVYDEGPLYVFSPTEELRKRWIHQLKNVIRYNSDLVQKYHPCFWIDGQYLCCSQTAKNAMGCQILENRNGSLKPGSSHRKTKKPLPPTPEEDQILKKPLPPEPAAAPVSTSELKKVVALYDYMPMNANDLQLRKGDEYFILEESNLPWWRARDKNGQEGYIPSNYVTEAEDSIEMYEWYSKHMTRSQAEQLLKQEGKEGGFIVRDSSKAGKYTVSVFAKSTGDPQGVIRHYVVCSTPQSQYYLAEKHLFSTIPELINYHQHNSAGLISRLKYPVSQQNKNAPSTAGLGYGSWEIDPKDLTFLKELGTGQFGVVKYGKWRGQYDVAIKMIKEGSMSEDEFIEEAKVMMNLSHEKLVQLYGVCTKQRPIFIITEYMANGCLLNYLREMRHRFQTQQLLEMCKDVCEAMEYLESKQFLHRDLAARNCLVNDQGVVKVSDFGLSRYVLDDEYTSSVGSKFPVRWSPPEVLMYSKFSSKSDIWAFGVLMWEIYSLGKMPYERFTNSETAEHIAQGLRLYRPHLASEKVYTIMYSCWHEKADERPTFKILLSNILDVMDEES

Row | Structure (SMILES) | Kd
9 | CCCS(=O)(=O)Nc1ccc(F)c(C(=O)c2c[nH]c3ncc(-c4ccc(Cl)cc4)cc23)c1F [VEMURAFENIB] | > 30 µM (inactive)
10 | CC[C@@H]1C(=O)N(C)c2cnc(Nc3ccc(C(=O)N[C@H]4CC[C@H](N5CCN(CC6CC6)CC5)CC4)cc3OC)nc2N1C(C)C [VOLASERTIB] | > 30 µM (inactive)
11 | CCn1c(=O)c(-c2cc[nH]n2)cc2c(C)nc(N)nc21 [VOXTALISIB] | > 30 µM (inactive)
12 | O=C(Nc1ccc(-c2ccnc(Nc3ccc(N4CCOCC4)cc3)n2)cc1)C1CCCN1 (stereo not given) [XL-019] | > 30 µM (inactive)

biological target: Mitogen-activated protein kinase 11 (Homo sapiens, UniProt Q15759)
Sequence (Q15759 whole entry): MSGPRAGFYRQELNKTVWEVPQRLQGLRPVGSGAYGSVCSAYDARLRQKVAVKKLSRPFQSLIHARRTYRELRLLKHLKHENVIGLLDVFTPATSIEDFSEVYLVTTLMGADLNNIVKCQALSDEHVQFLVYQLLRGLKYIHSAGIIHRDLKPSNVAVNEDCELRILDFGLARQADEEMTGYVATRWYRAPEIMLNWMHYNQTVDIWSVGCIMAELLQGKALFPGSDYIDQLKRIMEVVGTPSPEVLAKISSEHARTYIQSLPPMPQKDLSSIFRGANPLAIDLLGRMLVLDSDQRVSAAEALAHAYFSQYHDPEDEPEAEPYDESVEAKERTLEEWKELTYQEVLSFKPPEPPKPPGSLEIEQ

Row | Structure (SMILES) | Kd
13 | CCCS(=O)(=O)Nc1ccc(F)c(C(=O)c2c[nH]c3ncc(-c4ccc(Cl)cc4)cc23)c1F [VEMURAFENIB] | > 30 µM (inactive)
14 | CC[C@@H]1C(=O)N(C)c2cnc(Nc3ccc(C(=O)N[C@H]4CC[C@H](N5CCN(CC6CC6)CC5)CC4)cc3OC)nc2N1C(C)C [VOLASERTIB] | > 30 µM (inactive)
15 | CCn1c(=O)c(-c2cc[nH]n2)cc2c(C)nc(N)nc21 [VOXTALISIB] | > 30 µM (inactive)
16 | O=C(Nc1ccc(-c2ccnc(Nc3ccc(N4CCOCC4)cc3)n2)cc1)C1CCCN1 (stereo not given) [XL-019] | > 30 µM (inactive)

biological target: T2, Mitogen-activated protein kinase kinase kinase 5 (Homo sapiens, UniProt Q99683)
T2 sequence (Q99683 whole entry): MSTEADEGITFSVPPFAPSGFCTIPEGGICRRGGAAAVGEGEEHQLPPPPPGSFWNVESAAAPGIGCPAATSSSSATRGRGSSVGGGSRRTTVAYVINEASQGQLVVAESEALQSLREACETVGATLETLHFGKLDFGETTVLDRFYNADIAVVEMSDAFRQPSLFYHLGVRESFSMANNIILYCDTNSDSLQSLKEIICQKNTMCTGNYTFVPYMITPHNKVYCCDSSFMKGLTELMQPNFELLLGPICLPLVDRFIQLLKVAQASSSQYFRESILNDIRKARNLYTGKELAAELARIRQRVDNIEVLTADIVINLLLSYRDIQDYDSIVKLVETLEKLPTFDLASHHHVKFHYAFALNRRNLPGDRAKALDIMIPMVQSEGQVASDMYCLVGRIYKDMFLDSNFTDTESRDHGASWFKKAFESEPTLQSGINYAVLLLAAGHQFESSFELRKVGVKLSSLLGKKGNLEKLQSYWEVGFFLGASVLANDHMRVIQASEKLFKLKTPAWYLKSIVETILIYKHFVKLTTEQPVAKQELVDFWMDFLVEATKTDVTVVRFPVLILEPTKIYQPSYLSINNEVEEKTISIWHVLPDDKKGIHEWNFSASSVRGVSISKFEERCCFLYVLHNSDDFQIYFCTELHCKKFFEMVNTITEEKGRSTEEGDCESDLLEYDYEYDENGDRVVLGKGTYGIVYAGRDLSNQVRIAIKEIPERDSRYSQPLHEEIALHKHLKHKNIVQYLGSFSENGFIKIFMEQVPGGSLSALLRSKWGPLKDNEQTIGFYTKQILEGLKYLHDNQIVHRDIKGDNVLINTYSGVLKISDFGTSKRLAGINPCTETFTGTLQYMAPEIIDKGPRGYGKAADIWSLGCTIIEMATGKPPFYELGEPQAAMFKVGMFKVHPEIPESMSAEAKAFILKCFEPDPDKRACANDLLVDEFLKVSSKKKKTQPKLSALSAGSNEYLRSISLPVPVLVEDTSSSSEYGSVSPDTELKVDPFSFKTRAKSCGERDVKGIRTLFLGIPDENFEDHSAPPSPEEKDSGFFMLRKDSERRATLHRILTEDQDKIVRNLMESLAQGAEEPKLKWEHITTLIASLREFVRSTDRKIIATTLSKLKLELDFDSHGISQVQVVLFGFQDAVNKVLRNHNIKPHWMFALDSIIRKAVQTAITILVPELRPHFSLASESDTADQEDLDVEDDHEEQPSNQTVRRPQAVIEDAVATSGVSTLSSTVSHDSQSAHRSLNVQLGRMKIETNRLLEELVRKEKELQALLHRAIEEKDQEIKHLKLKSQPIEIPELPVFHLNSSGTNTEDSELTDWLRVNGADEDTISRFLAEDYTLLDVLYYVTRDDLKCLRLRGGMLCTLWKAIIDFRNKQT

Row | Structure (SMILES) | Kd
17 | CCCS(=O)(=O)Nc1ccc(F)c(C(=O)c2c[nH]c3ncc(-c4ccc(Cl)cc4)cc23)c1F [VEMURAFENIB] | > 30 µM (inactive)
18 | CC[C@@H]1C(=O)N(C)c2cnc(Nc3ccc(C(=O)N[C@H]4CC[C@H](N5CCN(CC6CC6)CC5)CC4)cc3OC)nc2N1C(C)C [VOLASERTIB] | > 30 µM (inactive)
19 | CCn1c(=O)c(-c2cc[nH]n2)cc2c(C)nc(N)nc21 [VOXTALISIB] | > 30 µM (inactive)
20 | O=C(Nc1ccc(-c2ccnc(Nc3ccc(N4CCOCC4)cc3)n2)cc1)C1CCCN1 (stereo not given) [XL-019] | > 30 µM (inactive)
